{"source": "patent US12054494B2", "about": "“Compound with anticancer activity” (KYOWA KIRIN CO., LTD., priority 2018, dated 2024)", "key": {"[1]": {"assay": "Body weight in SU-DHL-4 subcutaneous transplant model", "type": "in vivo", "details": "3 mg/kg intravenously 5 times a week for 2 weeks, male SCID mouse; for Body weight: mean of n=5", "protocol": "(§1) 1×10^7 cells of DLBCL strain SU-DHL-4 (Code No. ACC 495, Deutsche Sammlung von Mikroorganismen and Zellkulturen GmbH) suspended in a 1:1 mixed solution of PBS and matrigel (CORNING Code No. 354234) were transplanted subcutaneously to the ventral side of a male SCID mouse. Eighteen days after the transplantation, the body weight and the tumor diameter were measured, the tumor volume was calculated by the following formula, and the mice were divided into two groups (n=5) so that the average tumor volume of each group was equal. E-workbook software (ID Business Solusions) was used for grouping and measurement. [Tumor volume (mm^3)]=[Tumor long diameter (mm)]×[Tumor short diameter (mm)]^2×0.5\nThe test was conducted in two groups, a vehicle administration group and a compound 1a administration group (compound administration group). To the compound 1a administration group, a solution of compound 1a dissolved in 30% DMSO/3% Tween 80/physiological saline so as to give a final concentration of 0.6 mg/mL was administered intravenously (tail vein) at 5 mL/kg (3 mg/kg) 5 times a week for 2 weeks. To the vehicle administration group, 30% DMSO/3% Tween 80/physiological saline was administered intravenously (tail vein) at 5 mL/kg on the same schedule as the compound 1a administration group. After the start of the test, body weight and tumor diameter were measured twice a week. The tumor volume on each measurement day was calculated by the above formula. The tumor growth rate (hereinafter referred to as V/V0) was calculated by dividing the tumor volume V on each measurement day by the tumor volume V0 on the test start day (Day 0). The T/C was calculated by dividing the average value (T) of V/V0 of each group by the average value (C) of the vehicle administration group."}, "[2]": {"system": "DLBCL strain SU-DHL-4 subcutaneously transplanted tumor", "assay": "Antitumor effect on subcutaneous transplant model in SCID mouse", "type": "in vivo", "details": "3 mg/kg intravenously 5 times a week for 2 weeks; male SCID mouse; versus vehicle administration group", "protocol": "Antitumor Effect on Subcutaneous Transplant Model in SCID Mouse DLBCL Strain SU-DHL-4\nas §1, with “[Tumor volume (mm^3)]=[Tumor long diameter (mm)]×[Tumor short diameter (mm)]^2×0.5” left out\nThe test was conducted in two groups, a vehicle administration group and a compound 1a administration group (compound administration group). […] After the start of the test, body weight and tumor diameter were measured twice a week. The tumor volume on each measurement day was calculated by the above formula. The tumor growth rate (hereinafter referred to as V/V0) was calculated by dividing the tumor volume V on each measurement day by the tumor volume V0 on the test start day (Day 0). The T/C was calculated by dividing the average value (T) of V/V0 of each group by the average value (C) of the vehicle administration group."}, "[3]": {"system": "SU-DHL-4 cells", "assay": "Inhibitory effect on cell viability (Cell Counting Kit-8)", "type": "cell-based", "details": "Homo sapiens, 72 hours culture with test compound, concentration showing 90% inhibition rate of cell viability", "outline": "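SU-DHL-4 cells (2000/well, RPMI1640 with 10% FBS) precultured 18-25 h, then exposed to a 9-step compound dilution series (0.1% DMSO final) for 72 h at 37° C. Viability by CCK-8 absorbance at 450 nm after 2-3 h; IC90 computed from inhibition rate relative to untreated and cell-free wells.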"}}, "data": [{"molecule": "CCC(=O)N1c2ccccc2[C@H](Nc2ccc(C(=O)NCCCNC(=O)c3ccc(N[C@@H]4C[C@H](C)N(C(=O)CC)c5ccccc54)cc3)cc2)C[C@@H]1C", "note": "(single isomer, unassigned) [Compound 1a, N,N′-(Propane-1,3-diyl)bis(4-{[(2S*,4R*)-2-methyl-1-propionyl-1,2,3,4-tetrahydroquinolin-4-yl]amino}benzamide)]", "values": [{"measurement": "Weight loss (in words)", "setting": "[1]", "result": "no weight loss was observed"}, {"measurement": "Body weight", "setting": "[1]; Day 0", "result": 24.56, "unit": "g"}, {"measurement": "Body weight", "setting": "[1]; Day 3", "result": 25.36, "unit": "g"}, {"measurement": "Body weight", "setting": "[1]; Day 7", "result": 25.44, "unit": "g"}, {"measurement": "Body weight", "setting": "[1]; Day 10", "result": 25.14, "unit": "g"}, {"measurement": "Body weight", "setting": "[1]; Day 14", "result": 25.74, "unit": "g"}, {"measurement": "Body weight", "setting": "[1]; Day 18", "result": 26.23, "unit": "g"}, {"measurement": "Antitumor effect on SU-DHL-4 subcutaneously transplanted tumor (in words)", "setting": "[2]", "result": "strong antitumor effect"}, {"measurement": "IC90", "setting": "[3]", "result": 5.21, "unit": "nM"}]}]}
